Test results published in patent US11318154B2 (priority 2019, dated 2022).

Tests used:
[1] = tested on: TcdB-induced disruption in colon epithelium; assay: Mice colon ligation loop model with TcdB injection, H&E histological scoring; type: in vivo, C57BL/6 mice; conditions: intraperitoneal pre-treatment daily for two days, 10 μg TcdB in loop, 8 h
Experimental: The inventors used a mice colon ligation loop model to mimic C. difficile infection as TcdB is released into the lumen of the colon during C. difficile infection. All procedures were performed according to the animal protocol approved by the Cornell University IACUC (2017-0112). 6-8 weeks old of C57BL/6 mice were administrated with glycyrrhizin acid (50 mg/kg) daily via intraperitoneal injection two days before surgery. After overnight fasting, mice were anaesthetized and dissected via a midline laparotomy. A length of about 2 cm colon tissue was ligated and either saline or TcdB was injected into ligated loop for treatment. Mice were sutured and allowed to recover. After 8 hours, mice were euthanized and the ligated colon segments were excised and subjected to H&E staining. HE scoring was blindly assessed by a pathologist.

C. difficile VPI 10463 = assay: C. difficile mice model (spore challenge), survival; type: in vivo; conditions: C57BL/6 mice, 1×10^5 C. difficile VPI10463 spores by gavage, daily injection
Experimental: To further determine the in vivo protective effect of glycyrrhizin on mice, a C. difficile mice model was established particularly the one as described in Guo, S. et al, (2015), Vaccine 33, 1586-1595. Briefly, C57BL/6 mice were given water mixed with a mixture of kanamycin (Sigma, MO) (0.4×10^−3 mg/L), gentamicin (Sigma, MO) (0.035×10^−3 mg/L), colistin (Sigma, MO) (850 U/mL), metronidazole (Sigma, MO) (0.215×10^−3 mg/L), and vancomycin (Sigma, MO) (0.045×10^−3 mg/L) for 3 days. All mice were then provided with regular autoclaved water for 2 days and administered with a single dose of clindamycin (Sigma, MO) (10 mg/kg) intraperitoneally 1 day before the C. difficile challenge. Mice were injected with glycyrrhizin daily on or before the day of C. difficile VPI 10463 spores challenge. All mice were then challenged with 1×10^5 of prepared C. difficile (strain VPI10463) spores by gavage feeding. The mice were intensively monitored daily after challenge for the presence and severity of diarrhea and other symptoms of illness or mortality. Body weight was measured once a day at the same time each day. Mice judged to be in a moribund state were euthanized by carbon dioxide.

Compound: CC1(C)[C@@H](O[C@H]2O[C@H](C(=O)O)[C@@H](O)[C@H](O)[C@H]2O[C@@H]2O[C@H](C(=O)O)[C@@H](O)[C@H](O)[C@H]2O)CC[C@]2(C)[C@H]3C(=O)C=C4[C@@H]5C[C@@](C)(C(=O)O)CC[C@]5(C)CC[C@@]4(C)[C@]3(C)CC[C@@H]12 [glycyrrhizin]
- epithelial layer damage of ligated colon tissue (histology) [1]: less epithelial layer damages
- survival at the end of experiment (C. difficile VPI 10463): 100%
